The values below come from patent US20230150986A1, “ANTAGONISTS OF THE MUSCARINIC ACETYLCHOLINE RECEPTOR M4” (Vanderbilt University, priority 2019, published 2023).

For the assay, the target named is T1, Human M4 (Homo sapiens, UniProt P08173).
T1 construct: Human or rat M4 cDNA, along with the chimeric G protein Gq,5, were transfected into Chinese hamster ovary (CHO-K1) cells; expressed in transfected cells; host or cells: CHO-K1 (M4/Gqi5/CHO)
T1 sequence (P08173 1-479): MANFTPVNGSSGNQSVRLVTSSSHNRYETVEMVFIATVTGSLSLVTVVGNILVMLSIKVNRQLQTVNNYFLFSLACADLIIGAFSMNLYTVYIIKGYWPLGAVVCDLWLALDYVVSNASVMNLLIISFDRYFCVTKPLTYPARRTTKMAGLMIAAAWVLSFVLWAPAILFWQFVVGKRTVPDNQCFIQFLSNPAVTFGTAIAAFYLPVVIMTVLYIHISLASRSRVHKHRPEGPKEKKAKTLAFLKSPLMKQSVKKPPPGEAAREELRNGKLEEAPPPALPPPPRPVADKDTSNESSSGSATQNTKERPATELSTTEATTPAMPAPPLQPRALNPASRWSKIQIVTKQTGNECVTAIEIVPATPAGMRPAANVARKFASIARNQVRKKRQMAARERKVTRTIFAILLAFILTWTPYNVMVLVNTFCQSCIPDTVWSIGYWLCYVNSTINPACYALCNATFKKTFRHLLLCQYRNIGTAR
In words: mAChR M4 cell-based functional assay (calcium flux, decrease of EC80 acetylcholine response). As to conditions: for Human M4 Emin: % ACh maximum at 30 μM; for IC50: CHO-K1 cells with human M4 and Gqi5, EC80 acetylcholine. In outline:
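CHO-K1 cells stably co-expressing M4 with chimeric Gqi5, loaded with Fluo-4 AM for 50 min at 37 °C; compounds added as 10-point 1:3 curves, then acetylcholine at EC20 (143 s) and EC80 (268 s). Calcium read by FDSS fluorescence ratio; IC50 from four-parameter fit of decrease in EC80 acetylcholine response.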

As for `Fc1cc(F)c(F)c(-c2ccc(N[C@H]3C[C@@H]4CN(CCC(F)(F)F)C[C@@H]4C3)nn2)c1` [Compound 60, (3aR,5s,6aS)-N-(6-(2,3,5-trifluorophenyl)pyridazin-3-yl)-2-(3,3,3-trifluoropropyl)octahydrocyclopenta[c]pyrrol-5-amine], the “Human M4 Emin” value turned out to be 13% and the IC50 is 810 nM.
The like results for `Fc1cc(F)c(F)c(-c2ccc(N[C@H]3C[C@@H]4CN(Cc5ccc6c(c5)OC(F)(F)O6)C[C@@H]4C3)nn2)c1` [Compound 37, (3aR,5s,6aS)-2-((2,2-difluorobenzo[d][1,3]dioxol-5-yl)methyl)-N-(6-(2,3,5-trifluorophenyl)pyridazin-3-yl)octahydrocyclopenta[c]pyrrol-5-amine] were, in that order, 11% and 1010 nM.
With `Cc1cccc(CN2C[C@H]3C[C@H](Nc4ccc(-c5cc(F)cc(F)c5F)nn4)C[C@H]3C2)n1` [Compound 16, (3aR,5s,6aS)-2-((6-methylpyridin-2-yl)methyl)-N-(6-(2,3,5-trifluorophenyl)pyridazin-3-yl)octahydrocyclopenta[c]pyrrol-5-amine], the “Human M4 Emin” value amounted to 3% and the IC50 came to 38 nM.
On to `CC1(C)CC(CN2C[C@H]3C[C@H](Nc4ccc(-c5cc(F)cc(F)c5F)nn4)C[C@H]3C2)CC(C)(C)O1` [Compound 82, (3aR,5s,6aS)-2-((2,2,6,6-tetramethyltetrahydro-2H-pyran-4-yl)methyl)-N-(6-(2,3,5-trifluorophenyl)pyridazin-3-yl)octahydrocyclopenta[c]pyrrol-5-amine], for which the “Human M4 Emin” value came to 2% and the IC50 was determined as 62 nM.
The like results for `CCOCCN1C[C@H]2C[C@H](Nc3ccc(-c4cc(F)cc(F)c4F)nn3)C[C@H]2C1` [Compound 74, (3aR,5s,6aS)-2-(2-ethoxyethyl)-N-(6-(2,3,5-trifluorophenyl)pyridazin-3-yl)octahydrocyclopenta[c]pyrrol-5-amine] were, in that order, 4% and 210 nM.
As to `Fc1cc(F)c(F)c(-c2ccc(N[C@H]3C[C@@H]4CN(CC5CCCOC5)C[C@@H]4C3)nn2)c1` (single isomer, unassigned) [Compound 25], the “Human M4 Emin” value came out at 3% and the half-inhibitory concentration (IC50) came out at 5.7 nM.
For `Fc1cc(F)c(F)c(-c2ccc(N[C@H]3C[C@@H]4CN(C[C@@H]5CC6CCC5O6)C[C@@H]4C3)nn2)c1` (stereo partly drawn) [Compound 32, (3aR,5s,6aS)-2-(((2S)-7-oxabicyclo[2.2.1]heptan-2-yl)methyl)-N-(6-(2,3,5-trifluorophenyl)pyridazin-3-yl)octahydrocyclopenta[c]pyrrol-5-amine], the “Human M4 Emin” value was 3% and the IC50 is 0.48 nM.
For `COCCCN1C[C@H]2C[C@H](Nc3ccc(-c4cc(F)cc(F)c4F)nn3)C[C@H]2C1` [Compound 75, (3aR,5s,6aS)-2-(3-methoxypropyl)-N-(6-(2,3,5-trifluorophenyl)pyridazin-3-yl)octahydrocyclopenta[c]pyrrol-5-amine] the same measures were 4% and 79 nM.
Consider `Fc1cc(F)c(F)c(-c2ccc(N[C@H]3C[C@@H]4CN(CC5CCSCC5)C[C@@H]4C3)nn2)c1` [Compound 67, (3aR,5s,6aS)-2-((tetrahydro-2H-thiopyran-4-yl)methyl)-N-(6-(2,3,5-trifluorophenyl)pyridazin-3-yl)octahydrocyclopenta[c]pyrrol-5-amine], for which the “Human M4 Emin” value is recorded as 3% and the concentration for half-maximal inhibition (IC50) came to 4 nM.
With `Fc1cc(F)c(F)c(-c2ccc(N[C@H]3C[C@@H]4CN(C5CCCCCC5)C[C@@H]4C3)nn2)c1` [Compound 6, (3aR,5s,6aS)-2-cycloheptyl-N-(6-(2,3,5-trifluorophenyl)pyridazin-3-yl)octahydrocyclopenta[c]pyrrol-5-amine], the “Human M4 Emin” value is given as 3% and the IC50 was 20.9 nM.
In the case of `Fc1cc(F)c(F)c(-c2ccc(N[C@H]3C[C@@H]4CN(Cc5cccc(F)n5)C[C@@H]4C3)nn2)c1` [Compound 22, (3aR,5s,6aS)-2-((6-fluoropyridin-2-yl)methyl)-N-(6-(2,3,5-trifluorophenyl)pyridazin-3-yl)octahydrocyclopenta[c]pyrrol-5-amine], the “Human M4 Emin” value turned out to be 4% and the IC50 amounted to 79.2 nM.
Consider `CC(C)(C)OCCN1C[C@H]2C[C@H](Nc3ccc(-c4cc(F)cc(F)c4F)nn3)C[C@H]2C1` [Compound 53, (3aR,5s,6aS)-2-(2-(tert-butoxy)ethyl)-N-(6-(2,3,5-trifluorophenyl)pyridazin-3-yl)octahydrocyclopenta[c]pyrrol-5-amine], for which the “Human M4 Emin” value is 3% and the IC50 came out at 2.6 nM.
Turning to `Fc1cc(F)c(F)c(-c2ccc(N[C@H]3C[C@@H]4CN(C[C@H]5COCCO5)C[C@@H]4C3)nn2)c1` [Compound 29, (3aR,5s,6aS)-2-(((S)-1,4-dioxan-2-yl)methyl)-N-(6-(2,3,5-trifluorophenyl)pyridazin-3-yl)octahydrocyclopenta[c]pyrrol-5-amine], the “Human M4 Emin” value is 3% and the IC50 was 48.3 nM.
On to `Fc1cc(F)c(F)c(-c2ccc(N[C@H]3C[C@@H]4CN(Cc5cccc(F)c5F)C[C@@H]4C3)nn2)c1` [Compound 90, (3aR,5s,6aS)-2-(2,3-difluorobenzyl)-N-(6-(2,3,5-trifluorophenyl)pyridazin-3-yl)octahydrocyclopenta[c]pyrrol-5-amine], for which the “Human M4 Emin” value was determined as 10% and the IC50 was found to be 960 nM.
Turning to `[2H]C([2H])(C1CC(C)(C)OC(C)(C)C1)N1C[C@H]2C[C@H](Nc3ccc(-c4cc(F)cc(F)c4F)nn3)C[C@H]2C1` [Compound 83, (3aR,5s,6aS)-2-((2,2,6,6-tetramethyltetrahydro-2H-pyran-4-yl)methyl-d2)-N-(6-(2,3,5-trifluorophenyl)pyridazin-3-yl)octahydrocyclopenta[c]pyrrol-5-amine], the “Human M4 Emin” value worked out at 3% and the IC50 worked out at 56 nM.
Consider `[2H]C(C)(C1CCOCC1)N1C[C@H]2C[C@H](Nc3ccc(-c4cc(F)cc(F)c4F)nn3)C[C@H]2C1` (stereo partly drawn) [Compound 12, (3aR,5s,6aS)-2-(1-(tetrahydro-2H-pyran-4-yl)ethyl-1-d)-N-(6-(2,3,5-trifluorophenyl)pyridazin-3-yl)octahydrocyclopenta[c]pyrrol-5-amine], for which the “Human M4 Emin” value is on record as 3% and the IC50 stood at 8.64 nM.
Take `[2H]C([2H])([C@H]1CCOC1)N1C[C@H]2C[C@H](Nc3ccc(-c4cc(F)cc(F)c4F)nn3)C[C@H]2C1` [Compound 41, (3aR,5s,6aS)-2-(((R)-tetrahydrofuran-3-yl)methyl-d2)-N-(6-(2,3,5-trifluorophenyl)pyridazin-3-yl)octahydrocyclopenta[c]pyrrol-5-amine]: the “Human M4 Emin” value is 3% and the IC50 worked out at 64.6 nM.
As for `Fc1cc(F)c(F)c(-c2ccc(N[C@H]3C[C@@H]4CN(C[C@@H]5COCCO5)C[C@@H]4C3)nn2)c1` [Compound 28, (3aR,5s,6aS)-2-(((R)-1,4-dioxan-2-yl)methyl)-N-(6-(2,3,5-trifluorophenyl)pyridazin-3-yl)octahydrocyclopenta[c]pyrrol-5-amine], the “Human M4 Emin” value amounted to 4% and the IC50 turned out to be 0.69 nM.

Usually IC50 stands for the concentration that gives 50% inhibition.
